# Structures can show the parent of a compound that is named as a salt.
# Target: T1, human liver glycogen phosphorylase a (HLGPa) (Homo sapiens, UniProt P06737)
# T1 construct: creating a full-length cDNA fused at the 5′ end to codons for methionine-glycine-alanine-histidine; 6xHis tag (leader Met-Gly-Ala-His6-Gly-Gly) (N); made in house; host or cells: E. coli (bacterial expression plasmid pTXK1007LTev)
# T1 sequence (P06737 2-847 limits assumed): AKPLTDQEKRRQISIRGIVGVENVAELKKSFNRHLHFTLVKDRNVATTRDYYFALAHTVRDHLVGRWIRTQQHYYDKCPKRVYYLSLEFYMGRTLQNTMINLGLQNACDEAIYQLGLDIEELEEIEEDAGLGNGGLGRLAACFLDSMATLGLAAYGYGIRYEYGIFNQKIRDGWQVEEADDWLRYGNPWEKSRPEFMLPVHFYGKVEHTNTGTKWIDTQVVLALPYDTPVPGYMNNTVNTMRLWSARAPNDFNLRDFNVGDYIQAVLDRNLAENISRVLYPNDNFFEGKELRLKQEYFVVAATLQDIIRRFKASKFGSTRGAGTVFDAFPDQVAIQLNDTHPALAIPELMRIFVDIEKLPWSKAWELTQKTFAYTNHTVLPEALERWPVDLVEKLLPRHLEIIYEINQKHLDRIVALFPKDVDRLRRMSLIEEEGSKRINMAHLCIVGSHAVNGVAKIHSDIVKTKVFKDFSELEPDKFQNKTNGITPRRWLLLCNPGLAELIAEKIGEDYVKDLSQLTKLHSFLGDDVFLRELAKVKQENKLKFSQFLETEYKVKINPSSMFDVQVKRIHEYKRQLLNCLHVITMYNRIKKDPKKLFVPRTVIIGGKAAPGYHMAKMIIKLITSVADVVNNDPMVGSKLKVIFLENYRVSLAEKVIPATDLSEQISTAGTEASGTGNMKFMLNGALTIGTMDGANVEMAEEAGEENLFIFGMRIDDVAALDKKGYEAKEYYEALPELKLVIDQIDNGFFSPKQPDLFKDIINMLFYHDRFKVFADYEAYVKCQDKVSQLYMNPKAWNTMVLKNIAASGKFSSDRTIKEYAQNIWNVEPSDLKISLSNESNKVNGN
# Test: Human liver glycogen phosphorylase a enzymatic activity assay (coupled, fluorescent resorufin readout, with and without 10 mM glucose)
# Format: biochemical
# Settings: human liver glycogen phosphorylase a enzymatic activity assay
row,Compound,IC50 [µM]
1,"COc1ccc(-c2nc(C(=O)NC3(C(=O)O)CCCCC3)c(NC(=O)Nc3c(C)cc(C)cc3C)s2)cc1 [Example 489, 1-({[2-[4-(Methyloxy)phenyl]-5-({[(2,4,6-trimethylphenyl)amino]carbonyl}amino)-1,3-thiazol-4-yl]carbonyl}amino)cyclohexanecarboxylic acid]",0.034
2,"C[C@](NC(=O)c1ccc(F)cc1NC(=O)Nc1c(Cl)cc(OC(F)(F)F)cc1Cl)(C(=O)O)C1CCCCC1 [Example 474, 2-cyclohexyl-N-[(2-{[({2,6-dichloro-4-[(trifluoromethyl)oxy]phenyl}amino)carbonyl]amino}-4-fluorophenyl)carbonyl]-L-alanine]",0.145
3,"COc1cccc(-c2cc(C(=O)O)c(NC(=O)Nc3c(Cl)cccc3Cl)s2)c1 [Example 416, 2-({[(2,6-dichlorophenyl)amino]carbonyl}amino)-5-[3-(methyloxy)phenyl]-3-thiophenecarboxylic acid]",4.13
4,"COc1cc(NC(=O)Nc2c(C)cccc2Cl)c(C(=O)N[C@@H](CC(C)C)C(=O)O)cc1OC [Example 69, N-[2-({[(2-chloro-6-methylphenyl)amino]carbonyl}amino)-4,5-dimethoxybenzoyl]-L-leucine]",13.8

# Continued, values first:
row,IC50 [µM],Compound
1,14.9,"COC(=O)[C@@H](NC(=O)c1sc(-c2ccncc2)cc1NC(=O)Nc1c(Cl)cccc1Cl)C1CCCCC1 [Example 401, methyl(2S)-cyclohexyl({[3-({[(2,6-dichlorophenyl)amino]carbonyl}amino)-5-(4-pyridinyl)-2-thienyl]carbonyl}amino)ethanoate]"
2,0.034,"Cc1cccc(C)c1NC(=O)Nc1cc(-c2ccc(O)cc2)ccc1C(=O)N[C@H](C(=O)O)C1CCCCC1 [Example 187, (2S)-Cyclohexyl({[3-({[(2,6-dimethylphenyl)amino]carbonyl}amino)-4′-hydroxy-4-biphenylyl]carbonyl}amino)ethanoic acid]"
3,0.18,"O=C(Cc1c(Cl)ccc(Cl)c1Cl)Nc1cc2ccccc2cc1C(=O)N[C@H](C(=O)O)C1CCCCC1 [Example 459, (2S)-cyclohexyl{[(3-{[(2,3,6-trichlorophenyl)acetyl]amino}-2-naphthalenyl)carbonyl]amino}ethanoic acid]"
4,0.42,"Cc1cccc(Cl)c1NC(=O)Nc1cc2ccccc2cc1C(=O)N[C@@H](CC(N)=O)C(=O)O [Example 40, N-[3-({[(2-chloro-6-methylphenyl)amino]carbonyl}amino)-2-naphthoyl]-L-asparagine]"
5,0.23,"O=C(O)C[C@H](NC(=O)c1cc2ccccc2cc1NC(=O)Nc1c(Cl)cccc1Cl)C(=O)O [Example 148, N-{[3-({[(2,6-dichlorophenyl)amino]carbonyl}amino)-2-naphthalenyl]carbonyl}-L-aspartic acid]"
6,1.67,"CSCC[C@H](NC(=O)c1cc2ccccc2cc1NC(=O)Nc1c(C)cccc1C)C(=O)O [Example 49, N-[3-({[(2,6-dimethylphenyl)amino]carbonyl}amino)-2-naphthoyl]-L-methionine]"
7,0.51,"Cc1cccc(C)c1NC(=O)Nc1cc2ccccc2cc1C(=O)N[C@@H](Cc1c[nH]c2ccccc12)C(=O)O [Example 54, N-[3-({[(2,6-dimethylphenyl)amino]carbonyl}amino)-2-naphthoyl]-L-tryptophan trifluoroacetate]"
8,5.82,"Cc1cccc(Cl)c1NC(=O)Nc1cc2ccccc2cc1C(=O)N[C@H](Cc1ccccc1F)C(=O)O [Example 124, N-[3-({[(2-chloro-6-methylphenyl)amino]carbonyl}amino)-2-naphthoyl]-2-fluoro-D-phenylalanine]"
9,0.66,"Cc1cccc(C)c1NC(=O)Nc1cc2ccccc2cc1C(=O)NC(C(=O)O)c1ccccc1 (centres unmarked) [Example 97, {[3-({[(2,6-dimethylphenyl)amino]carbonyl}amino)-2-naphthoyl]amino}(phenyl)acetic acid]"
10,2.52,"O=C(O)CNC(=O)c1cc2ccccc2cc1NC(=O)Nc1ccccc1Cl [Example 12, N-[3-({[(2-chlorophenyl)amino]carbonyl}amino)-2-naphthoyl]glycine]"
11,7.43,"O=C(Nc1ccc(-c2ccccc2)cc1)Nc1cc2ccccc2cc1C(=O)NC1(C(=O)O)CCCCC1 [Example 513, 1-{[(3-{[(4-biphenylylamino)carbonyl]amino}-2-naphthalenyl)carbonyl]amino}cyclohexanecarboxylic acid]"
12,1.73,"Cc1cccc(C)c1NC(=O)Nc1cc2ccccc2cc1C(=O)N[C@@H](CCC(=O)O)C(=O)O [Example 48, N-[3-({[(2,6-dimethylphenyl)amino]carbonyl}amino)-2-naphthoyl]-L-glutamic acid]"

# Same assay, conditions: human liver glycogen phosphorylase a; table does not say whether with or without 10 mM glucose
row,Compound,IC50 [µM]
1,"O=C(Nc1sc(-c2ccccc2)cc1C(=O)O)Nc1c(Cl)cc(Cl)cc1Cl [Example 391, 5-phenyl-2-({[(2,4,6-trichlorophenyl)amino]carbonyl}amino)-3-thiophenecarboxylic acid]",6.78
2,"COc1ccc(-c2ccc(C(=O)N[C@H](C(=O)O)C(C)(C)C)c(NC(=O)Nc3c(C)cc(C)cc3C)c2)cc1 [Example 202, 3-Methyl-N-{[4′-(methyloxy)-3-({[(2,4,6-trimethylphenyl)amino]carbonyl}amino)-4-biphenylyl]carbonyl}-L-valine]",0.14
3,"COc1ccc(-c2ccc(C(=O)N[C@H](C(=O)O)C(C)(C)C)c(NC(=O)Nc3c(Cl)cc(Cl)cc3Cl)c2)cc1 [Example 201, 3-Methyl-N-{[4′-(methyloxy)-3-({[(2,4,6-trichlorophenyl)amino]carbonyl}amino)-4-biphenylyl]carbonyl}-L-valine]",0.67
4,"COc1ccc(-c2ccc(C(=O)O)c(NC(=O)Nc3c(Cl)cc(OC(F)(F)F)cc3Cl)c2)cc1 [Example 381, 3-{[({2,6-dichloro-4-[(trifluoromethyl)oxy]phenyl}amino)carbonyl]amino}-4′-(methyloxy)-4-biphenylcarboxylic acid]",3.42
5,"COC(=O)[C@@H](NC(=O)c1cc(C)sc1NC(=O)Nc1c(Cl)cccc1Cl)C1CCCCC1 [Example 389, methyl(2S)-cyclohexyl({[2-({[(2,6-dichlorophenyl)amino]carbonyl}amino)-5-methyl-3-thienyl]carbonyl}amino)ethanoate]",15.6
6,"Cc1cc(C)c(NC(=O)Nc2cc(-c3ccc(F)c(F)c3)ccc2C(=O)N[C@@H](CCC(=O)O)C(=O)O)c(C)c1 [Example 379, N-{[3′,4′-difluoro-3-({[(2,4,6-trimethylphenyl)amino]carbonyl}amino)-4-biphenylyl]carbonyl}-L-glutamic acid]",0.084
7,"COc1ccc(-c2ccc(C(=O)NC3(C(=O)O)CCCCCC3)c(NC(=O)Nc3c(C)cc(C)cc3C)c2)cc1 [Example 222, 1-({[4′-(methyloxy)-3-({[(2,4,6-trimethylphenyl)amino]carbonyl}amino)-4-biphenylyl]carbonyl}amino)cycloheptanecarboxylic acid]",0.024
8,"CCCc1cc(C)c(NC(=O)Nc2cc(-c3ccc(OC)cc3)ccc2C(=O)N[C@H](C(=O)O)[C@@H](C)OC(C)(C)C)c(C)c1 [Example 236, O-(1,1-Dimethylethyl)-N-{[3-({[(2,6-dimethyl-4-propylphenyl)amino]carbonyl}amino)-4′-(methyloxy)-4-biphenylyl]carbonyl}-L-threonine]",0.004

# Second part, the compound after the results:
row,IC50 [µM],Compound
1,2.13,"Cc1cc(C)c(NC(=O)Nc2cc3ccccc3cc2C(=O)N[C@H](CC(=O)O)C2CCCCC2)c(C)c1 [Example 338, (3R)-3-cyclohexyl-3-({[3-({[(2,4,6-trimethylphenyl)amino]carbonyl}amino)-2-naphthalenyl]carbonyl}amino)propanoic acid]"
2,15.1,"O=C(Nc1ccc2c(c1)CCO2)Nc1cc2ccccc2cc1C(=O)N[C@H](C(=O)O)C1CCCCC1 [Example 248, (2S)-cyclohexyl{[(3-{[(2,3-dihydro-1-benzofuran-5-ylamino)carbonyl]amino}-2-naphthalenyl)carbonyl]amino}ethanoic acid]"
3,0.002,"Cc1cc(C)c(NC(=O)Nc2cc3ccccc3nc2C(=O)NC2(C(=O)O)CCCCCCC2)c(C)c1 [Example 307, 1-({[3-({[(2,4,6-trimethylphenyl)amino]carbonyl}amino)-2-quinolinyl]carbonyl}amino)cyclooctanecarboxylic acid]"
4,7.18,"O=C(Nc1cc2ccccc2cc1C(=O)NC1(C(=O)O)CCOCC1)Nc1c(Cl)cccc1Cl [Example 283, 4-({[3-({[(2,6-Dichlorophenyl)amino]carbonyl}amino)-2-naphthalenyl]carbonyl}amino)tetrahydro-2H-pyran-4-carboxylic acid]"
5,0.038,"COCCOC[C@H](NC(=O)c1cc2ccccc2cc1NC(=O)Nc1c(C)cc(C)cc1C)C(=O)O [Example 272, O-[2-(methyloxy)ethyl]-N-{[3-({[(2,4,6-trimethylphenyl)amino]carbonyl}amino)-2-naphthalenyl]carbonyl}-L-serine]"

# — patent US20070249670A1, “Glycogen Phosphorylase Inhibitor Compounds and Pharmaceutical Compositions Thereof” (SMITHKLINE BEECHAM CORPORATION, priority 2004, published 2007)
